Source: patent US20230233569A1 (Revolution Medicines, Inc., priority 2020, published 2023)

Assays:
Assay in all cases: Ras-Raf disruption / FRET / MOA assay (BRAF RBD)
Format in all cases: biochemical
[1] = target: KRAS G12C (Homo sapiens, UniProt P01116+P62937, G12C); settings: Ras-Raf disruption, with Cyclophilin A; read-out: KRAS G12C FRET data IC50
Outline: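 His6-K-Ras G12C-GMPPNP (12.5 nM), GST-BRAF RBD (50 nM) and tagless Cyclophilin A (25 μM) incubated 3 h at 25 °C with compound (10-point 3-fold series from 30 μM), pH 7.3 HEPES buffer. Anti-His Eu/anti-GST APC added for 1.5 h; decreased TR-FRET ratio vs DMSO gives IC50.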

[2] = target: NRAS Q61R (Homo sapiens, UniProt P01111+P62937, Q61R); settings: NRAS Q61R; read-out: NRAS Q61R FRET data IC50
Outline: (§1)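 TR-FRET in 25 mM HEPES pH 7.3, 100 mM NaCl, 5 mM MgCl2, 0.1% BSA, 0.002% Tween20 with 25 μM Cyclophilin A, 12.5 nM His6-Ras-GMPPNP, 50 nM GST-BRAF RBD; compound 10-point 3-fold series from 30 μM. After 3 h at 25 °C, Eu anti-His/APC anti-GST added for 1.5 h; IC50 from ratio decrease versus DMSO.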

[3] = target: KRAS G13D (Homo sapiens, UniProt P01116+P62937, G13D); settings: Ras-Raf disruption, with Cyclophilin A; read-out: KRAS G13D FRET data IC50
Outline: as §1

[4] = target: NRAS WT (Homo sapiens, UniProt P01111+P62937); settings: NRAS WT; read-out: NRAS WT FRET data IC50
Outline: as §1

[5] = target: NRAS Q61K (Homo sapiens, UniProt P01111+P62937, Q61K); settings: NRAS Q61K; read-out: NRAS Q61K FRET data IC50
Outline: as §1

[6] = target: KRAS G13C (Homo sapiens, UniProt P01116+P62937, G13C); settings: Ras-Raf disruption, with Cyclophilin A; read-out: KRAS G13C FRET data IC50
Outline: as §1

[7] = target: KRAS Q61H (Homo sapiens, UniProt P01116+P62937, Q61H); settings: KRAS Q61H; read-out: KRAS Q61H FRET data IC50
Outline: as §1

[8] = target: KRAS G12V (Homo sapiens, UniProt P01116+P62937, G12V); settings: Ras-Raf disruption, with Cyclophilin A; read-out: KRAS G12V FRET data IC50
Outline: as §1

[9] = target: NRAS G12C (Homo sapiens, UniProt P01111+P62937, G12C); settings: NRAS G12C; read-out: NRAS G12C FRET data IC50
Outline: as §1

[10] = target: KRAS G12D (Homo sapiens, UniProt P01116+P62937, G12D); settings: Ras-Raf disruption, with Cyclophilin A; read-out: KRAS G12D FRET data IC50
Outline: as §1

[11] = target: KRAS WT (Homo sapiens, UniProt P01116+P62937); settings: Ras-Raf disruption, with Cyclophilin A; read-out: KRAS WT FRET data IC50
Outline: as §1

[12] = target: KRAS G12S (Homo sapiens, UniProt P01116+P62937, G12S); settings: Ras-Raf disruption, with Cyclophilin A; read-out: KRAS G12S FRET data IC50
Outline: as §1

KRAS WT, sequence (P01116 1-169 isoform P01116-2 limits assumed): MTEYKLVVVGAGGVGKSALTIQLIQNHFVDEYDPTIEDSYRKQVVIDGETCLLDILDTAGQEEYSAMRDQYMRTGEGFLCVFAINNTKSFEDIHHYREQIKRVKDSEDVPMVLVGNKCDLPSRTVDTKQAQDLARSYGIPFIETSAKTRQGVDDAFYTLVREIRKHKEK
KRAS WT, sequence (P62937 whole entry): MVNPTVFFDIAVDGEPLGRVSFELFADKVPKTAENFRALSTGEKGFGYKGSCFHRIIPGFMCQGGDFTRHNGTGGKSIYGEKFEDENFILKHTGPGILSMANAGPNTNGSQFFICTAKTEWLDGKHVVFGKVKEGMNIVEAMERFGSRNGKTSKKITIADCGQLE
KRAS G12S, sequence (P01116 1-169 isoform P01116-2 G12S limits assumed): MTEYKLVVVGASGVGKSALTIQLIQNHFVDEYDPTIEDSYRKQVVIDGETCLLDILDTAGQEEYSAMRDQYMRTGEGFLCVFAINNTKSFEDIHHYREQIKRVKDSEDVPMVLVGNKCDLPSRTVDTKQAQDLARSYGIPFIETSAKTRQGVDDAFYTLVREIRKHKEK
KRAS G12S, sequence (P62937 whole entry): as the sequence (P62937 whole entry) above
NRAS Q61R, sequence (P01111 whole entry Q61R): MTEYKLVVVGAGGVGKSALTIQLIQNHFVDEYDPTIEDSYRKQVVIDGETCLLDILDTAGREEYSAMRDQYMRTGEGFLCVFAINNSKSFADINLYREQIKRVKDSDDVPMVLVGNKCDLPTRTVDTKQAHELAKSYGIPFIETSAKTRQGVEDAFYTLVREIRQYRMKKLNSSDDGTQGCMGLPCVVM
NRAS Q61R, sequence (P62937 whole entry): as the sequence (P62937 whole entry) above
NRAS G12C, sequence (P01111 whole entry G12C): as the sequence (P01111 whole entry Q61R) above, with G12C, R61Q counted along it
NRAS G12C, sequence (P62937 whole entry): as the sequence (P62937 whole entry) above
KRAS Q61H, sequence (P01116 1-169 isoform P01116-2 Q61H limits assumed): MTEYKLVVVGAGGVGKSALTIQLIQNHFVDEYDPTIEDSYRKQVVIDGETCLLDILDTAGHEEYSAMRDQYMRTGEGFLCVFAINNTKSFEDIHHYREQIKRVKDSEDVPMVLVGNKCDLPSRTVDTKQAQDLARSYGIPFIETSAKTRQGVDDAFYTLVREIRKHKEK
KRAS Q61H, sequence (P62937 whole entry): as the sequence (P62937 whole entry) above
NRAS WT, sequence (P01111 whole entry): as the sequence (P01111 whole entry Q61R) above, with R61Q counted along it
NRAS WT, sequence (P62937 whole entry): as the sequence (P62937 whole entry) above
KRAS G12C, sequence (P01116 1-169 isoform P01116-2 G12C limits assumed): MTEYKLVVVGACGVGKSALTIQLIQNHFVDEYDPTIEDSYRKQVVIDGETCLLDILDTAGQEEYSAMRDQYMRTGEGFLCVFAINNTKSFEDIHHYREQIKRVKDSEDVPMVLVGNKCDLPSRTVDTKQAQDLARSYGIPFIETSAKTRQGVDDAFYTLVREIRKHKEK
KRAS G12C, sequence (P62937 whole entry): as the sequence (P62937 whole entry) above
KRAS G12V, sequence (P01116 1-169 isoform P01116-2 G12V limits assumed): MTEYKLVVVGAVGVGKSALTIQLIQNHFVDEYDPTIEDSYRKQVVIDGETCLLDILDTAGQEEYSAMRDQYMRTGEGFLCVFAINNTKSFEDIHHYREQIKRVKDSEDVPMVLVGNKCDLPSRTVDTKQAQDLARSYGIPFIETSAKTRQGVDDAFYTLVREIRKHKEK
KRAS G12V, sequence (P62937 whole entry): as the sequence (P62937 whole entry) above
NRAS Q61K, sequence (P01111 whole entry Q61K): as the sequence (P01111 whole entry Q61R) above, with R61K counted along it
NRAS Q61K, sequence (P62937 whole entry): as the sequence (P62937 whole entry) above
KRAS G13C, sequence (P01116 1-169 isoform P01116-2 G13C limits assumed): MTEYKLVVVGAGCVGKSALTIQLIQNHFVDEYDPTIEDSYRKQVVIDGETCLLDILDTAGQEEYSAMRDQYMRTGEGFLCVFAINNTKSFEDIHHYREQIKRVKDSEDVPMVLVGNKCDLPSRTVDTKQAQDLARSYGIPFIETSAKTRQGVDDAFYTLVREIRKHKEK
KRAS G13C, sequence (P62937 whole entry): as the sequence (P62937 whole entry) above
KRAS G12D, sequence (P01116 1-169 isoform P01116-2 G12D limits assumed): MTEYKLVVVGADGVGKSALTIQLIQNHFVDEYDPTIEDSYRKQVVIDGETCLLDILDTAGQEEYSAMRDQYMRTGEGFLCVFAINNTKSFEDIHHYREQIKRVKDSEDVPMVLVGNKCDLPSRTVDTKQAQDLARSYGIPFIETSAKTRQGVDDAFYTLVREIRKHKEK
KRAS G12D, sequence (P62937 whole entry): as the sequence (P62937 whole entry) above
KRAS G13D, sequence (P01116 1-169 isoform P01116-2 G13D limits assumed): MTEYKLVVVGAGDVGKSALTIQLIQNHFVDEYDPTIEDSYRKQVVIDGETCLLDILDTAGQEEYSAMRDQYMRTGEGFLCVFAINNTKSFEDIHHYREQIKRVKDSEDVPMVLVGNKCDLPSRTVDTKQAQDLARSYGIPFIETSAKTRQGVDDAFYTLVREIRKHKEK
KRAS G13D, sequence (P62937 whole entry): as the sequence (P62937 whole entry) above

CCn1c(-c2cccnc2[C@H](C)OC)c2c3cc(ccc31)-c1cc(O)cc(c1)C[C@H](NC(=O)[C@H](C(C)C)N(C)C(=O)N(C)C1CN(C(=O)[C@H]3CN3)C1)C(=O)N1CCC[C@H](N1)C(=O)OCC(C)(C)C2 (atropisomer, axis not shown) [Example 203]
IC50 [1]: < 10 nM
IC50 [2]: 100 to 1000 nM
IC50 [3]: 100 to 1000 nM
IC50 [4]: 100 to 1000 nM
IC50 [5]: 100 to 1000 nM
IC50 [6]: 10 to 100 nM
IC50 [7]: 10 to 100 nM
IC50 [8]: 100 to 1000 nM
IC50 [9]: < 10 nM
IC50 [10]: 100 to 1000 nM
IC50 [11]: 100 to 1000 nM
IC50 [12]: 100 to 1000 nM

CCn1c(-c2cccnc2[C@H](C)OC)c2c3cc(ccc31)-c1cc(O)cc(c1)C[C@H](NC(=O)[C@H](C(C)C)N(C)C(=O)N(C)CCN(C)C(=O)[C@H]1CN1)C(=O)N1CCC[C@H](N1)C(=O)OCC(C)(C)C2 (atropisomer, axis not shown) [Example 204]
IC50 [1]: < 10 nM
IC50 [2]: 100 to 1000 nM
IC50 [3]: 10 to 100 nM
IC50 [4]: 10 to 100 nM
IC50 [5]: 100 to 1000 nM
IC50 [6]: 10 to 100 nM
IC50 [7]: 10 to 100 nM
IC50 [8]: 10 to 100 nM
IC50 [9]: < 10 nM
IC50 [10]: 100 to 1000 nM
IC50 [11]: 10 to 100 nM
IC50 [12]: 10 to 100 nM

CCn1c(-c2cccnc2[C@H](C)OC)c2c3cc(ccc31)-c1cc(O)cc(c1)C[C@H](NC(=O)[C@H](C(C)C)N(C)C(=O)N1CCN(C(=O)[C@@H]3CN3)CC1=O)C(=O)N1CCC[C@H](N1)C(=O)OCC(C)(C)C2 (atropisomer, axis not shown) [Example 205]
IC50 [1]: 10 to 100 nM
IC50 [2]: 100 to 1000 nM
IC50 [3]: 100 to 1000 nM
IC50 [4]: 10 to 100 nM
IC50 [5]: 100 to 1000 nM
IC50 [6]: < 10 nM
IC50 [7]: 10 to 100 nM
IC50 [8]: 100 to 1000 nM
IC50 [9]: 10 to 100 nM
IC50 [10]: 1000 to 10000 nM
IC50 [11]: 10 to 100 nM
IC50 [12]: 100 to 1000 nM

CCn1c(-c2cccnc2[C@H](C)OC)c2c3cc(ccc31)-c1cc(O)cc(c1)C[C@H](NC(=O)[C@H](C(C)C)N(C)C(=O)[C@H]1CCN(C(=O)[C@H]3CN3)[C@H]1C)C(=O)N1CCC[C@H](N1)C(=O)OCC(C)(C)C2 (atropisomer, axis not shown) [Example 206]
IC50 [1]: 10 to 100 nM
IC50 [2]: 1000 to 10000 nM
IC50 [3]: 100 to 1000 nM
IC50 [4]: 100 to 1000 nM
IC50 [5]: 1000 to 10000 nM
IC50 [6]: 100 to 1000 nM
IC50 [7]: 100 to 1000 nM
IC50 [8]: 100 to 1000 nM
IC50 [9]: 10 to 100 nM
IC50 [10]: 1000 to 10000 nM
IC50 [11]: 100 to 1000 nM
IC50 [12]: 100 to 1000 nM

CCn1c(-c2cccnc2[C@H](C)OC)c2c3cc(ccc31)-c1cc(O)cc(c1)C[C@H](NC(=O)[C@H](C(C)C)N(C)C(=O)[C@@H]1CCN(C(=O)[C@H]3CN3)[C@@H]1C)C(=O)N1CCC[C@H](N1)C(=O)OCC(C)(C)C2 (atropisomer, axis not shown) [Example 207]
IC50 [1]: 10 to 100 nM
IC50 [2]: 100 to 1000 nM
IC50 [3]: 100 to 1000 nM
IC50 [4]: 10 to 100 nM
IC50 [5]: 100 to 1000 nM
IC50 [6]: 10 to 100 nM
IC50 [7]: 10 to 100 nM
IC50 [8]: 10 to 100 nM
IC50 [9]: 10 to 100 nM
IC50 [10]: 100 to 1000 nM
IC50 [11]: 10 to 100 nM
IC50 [12]: 10 to 100 nM

CCn1c(-c2cccnc2[C@H](C)OC)c2c3cc(ccc31)-c1cc(O)cc(c1)C[C@H](NC(=O)[C@H](C(C)C)N(C)C(=O)[C@@H]1CCN(C(=O)[C@@H]3CN3)[C@@H]1C)C(=O)N1CCC[C@H](N1)C(=O)OCC(C)(C)C2 (atropisomer, axis not shown) [Example 208]
IC50 [1]: 10 to 100 nM
IC50 [2]: 100 to 1000 nM
IC50 [3]: 100 to 1000 nM
IC50 [4]: 10 to 100 nM
IC50 [5]: 100 to 1000 nM
IC50 [6]: 10 to 100 nM
IC50 [7]: 10 to 100 nM
IC50 [8]: 10 to 100 nM
IC50 [9]: 10 to 100 nM
IC50 [10]: 100 to 1000 nM
IC50 [11]: 10 to 100 nM
IC50 [12]: 10 to 100 nM

CCn1c(-c2cccnc2[C@H](C)OC)c2c3cc(ccc31)-c1cc(O)cc(c1)C[C@H](NC(=O)[C@@H](COC1CCN(C(=O)[C@H]3CN3)CC1)C(C)C)C(=O)N1CCC[C@H](N1)C(=O)OCC(C)(C)C2 (atropisomer, axis not shown) [Example 211]
IC50 [1]: 10 to 100 nM
IC50 [2]: 1000 to 10000 nM
IC50 [3]: 1000 to 10000 nM
IC50 [4]: 100 to 1000 nM
IC50 [5]: 1000 to 10000 nM
IC50 [6]: 100 to 1000 nM
IC50 [7]: 100 to 1000 nM
IC50 [8]: 1000 to 10000 nM
IC50 [9]: 10 to 100 nM
IC50 [10]: 1000 to 10000 nM
IC50 [11]: 100 to 1000 nM
IC50 [12]: 1000 to 10000 nM

CCn1c(-c2cccnc2[C@H](C)OC)c2c3cc(ccc31)-c1cc(O)cc(c1)C[C@H](NC(=O)[C@H](C(C)C)N(C)C(=O)c1nc(NC(=O)[C@H]3CN3)cs1)C(=O)N1CCC[C@H](N1)C(=O)OCC(C)(C)C2 (atropisomer, axis not shown) [Example 212]
IC50 [1]: 100 to 1000 nM
IC50 [2]: 100 to 1000 nM
IC50 [3]: 100 to 1000 nM
IC50 [4]: 100 to 1000 nM
IC50 [5]: 100 to 1000 nM
IC50 [6]: 10 to 100 nM
IC50 [7]: 10 to 100 nM
IC50 [8]: 100 to 1000 nM
IC50 [9]: 100 to 1000 nM
IC50 [10]: 1000 to 10000 nM
IC50 [11]: 100 to 1000 nM
IC50 [12]: 100 to 1000 nM

CCn1c(-c2cccnc2[C@H](C)OC)c2c3cc(ccc31)-c1csc(n1)C[C@H](NC(=O)[C@H](C(C)C)N(C)C(=O)N(C)CCN(C)C(=O)[C@H]1CN1)C(=O)N1CCC[C@H](N1)C(=O)OCC(C)(C)C2 (atropisomer, axis not shown) [Example 216]
IC50 [1]: 10 to 100 nM
IC50 [2]: 100 to 1000 nM
IC50 [3]: 100 to 1000 nM
IC50 [4]: 100 to 1000 nM
IC50 [5]: 10 to 100 nM
IC50 [6]: 100 to 1000 nM
IC50 [7]: 10 to 100 nM
IC50 [8]: 100 to 1000 nM
IC50 [9]: 10 to 100 nM
IC50 [10]: 100 to 1000 nM
IC50 [11]: 100 to 1000 nM
IC50 [12]: 100 to 1000 nM

CCn1c(-c2cccnc2[C@H](C)OC)c2c3cc(ccc31)-c1csc(n1)C[C@H](NC(=O)[C@H](C(C)C)N(C)C(=O)N(C)CCN(C)C(=O)[C@@H]1CN1)C(=O)N1CCC[C@H](N1)C(=O)OCC(C)(C)C2 (atropisomer, axis not shown) [Example 217]
IC50 [1]: 10 to 100 nM
IC50 [2]: 100 to 1000 nM
IC50 [3]: 100 to 1000 nM
IC50 [4]: 10 to 100 nM
IC50 [5]: 10 to 100 nM
IC50 [6]: 100 to 1000 nM
IC50 [7]: 10 to 100 nM
IC50 [8]: 100 to 1000 nM
IC50 [9]: 10 to 100 nM
IC50 [10]: 100 to 1000 nM
IC50 [11]: 100 to 1000 nM
IC50 [12]: 100 to 1000 nM
